ChEMBL document CHEMBL1201862, “PubChem BioAssay data set” (2004)
The source made the active and inactive calls.

Columns and labels:
cells [1] = assay: cells
Major prion protein = Major prion protein (Homo sapiens, UniProt P04156); format: functional, cell-based
cells [2] = format: functional, cell-based
[3] = target: T1, Nuclear receptor subfamily 0 group B member 1 (Homo sapiens, UniProt P51843); format: functional, cell-based;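 further: HEK293T cells transfected with SF-1 and DAX-1 plus StAR promoter luciferase reporter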
T1 sequence (P51843 whole entry): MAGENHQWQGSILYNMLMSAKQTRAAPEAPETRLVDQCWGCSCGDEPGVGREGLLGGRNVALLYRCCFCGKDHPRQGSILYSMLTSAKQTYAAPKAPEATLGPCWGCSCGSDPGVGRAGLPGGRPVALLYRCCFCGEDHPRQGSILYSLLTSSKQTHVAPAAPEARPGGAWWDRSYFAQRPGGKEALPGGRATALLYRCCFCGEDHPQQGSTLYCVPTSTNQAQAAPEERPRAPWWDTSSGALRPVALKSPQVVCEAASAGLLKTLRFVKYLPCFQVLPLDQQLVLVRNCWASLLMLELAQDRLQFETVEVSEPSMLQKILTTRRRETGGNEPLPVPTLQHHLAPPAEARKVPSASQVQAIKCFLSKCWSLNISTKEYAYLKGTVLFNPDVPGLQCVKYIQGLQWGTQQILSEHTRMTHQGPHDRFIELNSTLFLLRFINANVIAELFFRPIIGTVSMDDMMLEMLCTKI

cells [4] = assay: cells; remark: listed apart in the source
[5] = target: T2, Oxysterols receptor LXR-beta (Homo sapiens, UniProt P55055); format: functional, cell-based;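 further: Cell-based luminescence dose-response assay of agonist activity at LXR, run as a confirmatory counterscreen to a daf-12 agonist screen; HEK293 cells with Gal4-LXR fusion and GAL4-driven luciferase reporter; agonist potency from rising luciferase signal of a Gal4-LXR reporter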
T2 sequence (P55055 whole entry): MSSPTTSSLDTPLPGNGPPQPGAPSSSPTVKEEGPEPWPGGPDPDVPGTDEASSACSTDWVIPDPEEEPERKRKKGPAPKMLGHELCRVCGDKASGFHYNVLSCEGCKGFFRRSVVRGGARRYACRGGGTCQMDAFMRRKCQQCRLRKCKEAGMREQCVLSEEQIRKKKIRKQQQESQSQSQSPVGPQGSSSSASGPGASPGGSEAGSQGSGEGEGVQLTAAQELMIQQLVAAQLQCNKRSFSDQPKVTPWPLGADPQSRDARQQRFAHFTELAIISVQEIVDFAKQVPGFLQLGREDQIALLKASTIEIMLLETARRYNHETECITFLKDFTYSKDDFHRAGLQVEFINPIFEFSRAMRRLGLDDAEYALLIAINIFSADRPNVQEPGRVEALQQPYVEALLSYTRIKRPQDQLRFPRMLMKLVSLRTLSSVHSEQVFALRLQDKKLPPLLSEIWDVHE

[6] = target: Peroxisome proliferator-activated receptor gamma/Nuclear receptor coactivator 1 (Homo sapiens, UniProt P37231); assay: (§1) TR-FRET dose response biochemical High Throughput Screening assay for agonists of the steroid receptor coactivator 1 (SRC-1) recruitment by the peroxisome proliferator-activated receptor gamma (PPAR gamma): non-selective agonists. [Related pubchem assays (depositor defined):AID1300, AID1808, AID504735, AID631]; format: protein assay
[7] = target: Mitogen-activated protein kinase 10 (Homo sapiens, UniProt P53779); assay: Dose response biochemical screening assay for inhibitors of c-Jun N-Terminal Kinase 3 (JNK3). [Related pubchem assays: 746 ]
[8] = target: Peroxisome proliferator-activated receptor gamma/Nuclear receptor coactivator 3 (Homo sapiens, UniProt P37231); assay: as §1, with “3 (SRC-3)” for “1 (SRC-1)”, “assays: 1301 (Confirmation screen.), 1048 (Primary screen.)]” for “assays (depositor defined):AID1300, AID1808, AID504735, AID631]”; format: functional
[9] = target: Peroxisome proliferator-activated receptor gamma/Nuclear receptor coactivator 2 (Homo sapiens, UniProt P37231); assay: TR-FRET dose response biochemical High Throughput Screening assay for agonists of the steroid receptor coactivator 2 (SRC-2) recruitment by the peroxisome proliferator-activated receptor gamma (PPAR gamma): non-selective agonists. [Related pubchem assays: 1297, 1032 ]; format: functional
Estrogen receptor = target: T3, Estrogen receptor (Homo sapiens, UniProt P03372); assay: potentiators of ERα–SRC-1 coactivator binding, dose response, biochemical, TR-FRET, ERα LBD (AID 737)
T3 sequence (P03372 whole entry): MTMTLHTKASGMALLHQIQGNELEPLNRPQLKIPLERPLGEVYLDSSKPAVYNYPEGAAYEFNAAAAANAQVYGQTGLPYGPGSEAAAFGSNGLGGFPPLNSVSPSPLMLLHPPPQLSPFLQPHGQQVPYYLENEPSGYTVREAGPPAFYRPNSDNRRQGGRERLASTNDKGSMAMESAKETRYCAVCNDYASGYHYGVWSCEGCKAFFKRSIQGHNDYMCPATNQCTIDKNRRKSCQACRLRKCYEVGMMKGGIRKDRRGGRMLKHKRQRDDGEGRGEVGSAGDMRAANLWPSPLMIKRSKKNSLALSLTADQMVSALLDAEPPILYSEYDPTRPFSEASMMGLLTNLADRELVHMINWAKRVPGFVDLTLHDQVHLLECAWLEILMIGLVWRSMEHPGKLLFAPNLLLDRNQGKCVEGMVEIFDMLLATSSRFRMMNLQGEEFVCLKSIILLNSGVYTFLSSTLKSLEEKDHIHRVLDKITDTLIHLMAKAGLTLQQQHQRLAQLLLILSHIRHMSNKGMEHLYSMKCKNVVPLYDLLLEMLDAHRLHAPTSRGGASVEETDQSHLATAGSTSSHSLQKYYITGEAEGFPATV

[10] = target: T4, Zinc finger protein mex-5 (Caenorhabditis elegans, UniProt Q9XUB2); assay: MEX-5/TCR-2 RNA interaction inhibitors, dose response, biochemical, C. elegans, fluorescence polarization (AID 1960)
T4 sequence (Q9XUB2 whole entry): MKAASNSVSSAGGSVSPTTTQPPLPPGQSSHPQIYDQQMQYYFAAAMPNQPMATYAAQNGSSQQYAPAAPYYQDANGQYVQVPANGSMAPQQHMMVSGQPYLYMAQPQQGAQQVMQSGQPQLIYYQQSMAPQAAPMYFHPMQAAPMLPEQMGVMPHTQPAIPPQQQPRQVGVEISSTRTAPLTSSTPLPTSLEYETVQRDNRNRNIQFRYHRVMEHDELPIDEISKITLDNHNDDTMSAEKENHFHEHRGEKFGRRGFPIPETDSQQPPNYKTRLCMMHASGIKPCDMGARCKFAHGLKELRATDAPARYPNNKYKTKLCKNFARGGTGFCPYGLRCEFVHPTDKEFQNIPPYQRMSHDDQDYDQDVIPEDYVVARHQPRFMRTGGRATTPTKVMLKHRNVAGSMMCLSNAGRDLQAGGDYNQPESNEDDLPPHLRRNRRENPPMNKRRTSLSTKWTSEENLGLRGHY

[11] = target: T5, RNA-binding protein pos-1 (Caenorhabditis elegans, UniProt G5EF15); assay: inhibitors of POS-1/mex-3 RNA binding, dose response, biochemical, fluorescence polarization (AID 1964);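 further: purified POS-1 fused to maltose binding protein made in E. coli; potency of compounds blocking POS-1 binding to fluorescent RNA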
T5 sequence (G5EF15 whole entry): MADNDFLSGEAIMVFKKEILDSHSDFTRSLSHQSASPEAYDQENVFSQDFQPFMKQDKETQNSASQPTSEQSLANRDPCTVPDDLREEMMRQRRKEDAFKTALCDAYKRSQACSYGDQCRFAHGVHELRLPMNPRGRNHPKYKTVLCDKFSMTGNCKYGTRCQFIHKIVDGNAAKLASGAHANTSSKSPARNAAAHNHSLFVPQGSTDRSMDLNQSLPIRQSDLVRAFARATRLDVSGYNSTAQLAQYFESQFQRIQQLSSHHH

fMet-Leu-Phe receptor = fMet-Leu-Phe receptor (Homo sapiens, UniProt P21462); assay: FPR ligands, dose response (AID 519); format: functional
[12] = HEp-2 cell cytotoxicity, dose response, cytotoxicity control for RSV inhibitor project, HTS (AID 2410); format: functional; conditions: human respiratory syncytial virus
Protein Tat = Protein Tat (Human immunodeficiency virus type 1 group M subtype B (isolate HXB2)(HIV-1), UniProt P04608); format: functional;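 further: tat binding to TAR RNA read out by fluorescence polarization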
BJ [13] = assay: cells; format: functional, cell-based; conditions: Homo sapiens
[14] = Luminescence Cell-Based Dose Response HTS to Identify Inhibitors of 5'UTR Stem-Loop Driven Prion Protein mRNA Translation in H4 Neuroglioblastoma Cells. [Related pubchem assays: 1827 (Project Summary), 1813 (Primary HTS)]; format: functional
[15] = inhibitors of firefly luciferase expression or activity, dose response, H4 neuroglioma cells, luminescence (AID 1990); format: functional, cell-based
[16] = cytotoxicity toward DRD oncogenic fibroblasts, dose response, cell-based, non-viral oncogenic, luminescence (AID 1934); format: functional; conditions: Homo sapiens
BJ [17] = assay: cytotoxicity toward BJ-TERT fibroblasts, dose response, cell-based, RAS-independent, luminescence (AID 1933); format: functional; conditions: Homo sapiens
BJ [18] = assay: cytotoxicity toward BJ-TERT-LT-ST fibroblasts, dose response, cell-based, RAS-independent, luminescence (AID 1935); format: functional; conditions: Homo sapiens;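 further: BJ fibroblasts immortalized with TERT plus LT and ST oncogenes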
[19] = HEK293T cell cytotoxicity, dose response, cytotoxicity control for HIV Vif inhibitor project, cherry-picks (AID 652208); format: functional, cell-based
INS1 = assay: beta cell apoptosis inhibitors, cytokine rescue, dose response, luminescence, retest (AID 449756); format: functional, cell-based; conditions: Rattus norvegicus;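 further: cell death triggered by IL-1 beta plus TNF-alpha plus IFN-gamma mixture; protective hits raise ATP signal compared with cytokine alone wells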
BJ [20] = assay: cytotoxicity toward Ras-transformed BJeLR fibroblasts, dose response, cell-based, alamar blue fluorescence, cherrypicked samples (AID 2631); format: functional; conditions: Homo sapiens;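 further: confirmatory dose-response assay in RAS-dependent BJ fibroblasts engineered with TERT, LT and ST, with cytotoxicity read by fluorescence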
Escherichia coli [21] = assay: microbe, parasite or virus in culture
[22] = target: NAD-dependent protein deacylase sirtuin-5, mitochondrial (Homo sapiens, UniProt Q9NXA8); assay: SIRT5 desuccinylase inhibitors, dose response, biochemical, fluorescence imaging, cherry-pick, set 5 (AID 720591);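 further: desuccinylation of succinyl peptide AMC substrate read as fluorescence after trypsin release; potency of inhibitors that lower fluorescence and may act on trypsin instead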
Escherichia coli [23] = assay: microbe, parasite or virus in culture; remark: listed apart in the source
cells [24] = conditions: HEK293
cells [25] = conditions: A549
[26] = HepG2 cell cytotoxicity, dose response, cytotoxicity control, ATP luminescence, cherry-pick, set 6 (AID 1053125); format: functional, cell-based
[27] = HepG2 cell cytotoxicity, dose response, cytotoxicity control, plate reader, cherry-pick, antagonist series (AID 743416); format: functional, cell-based
[28] = A549 cell cytotoxicity, dose response, cytotoxicity control, plate reader, cherry-pick, antagonist series (AID 743412); format: functional, cell-based
[29] = IGROV1 ovarian cancer cell cytotoxicity, dose response, PAX8 inhibitor project, plate reader, dry powder samples (AID 743043); format: functional, cell-based; conditions: IGROV-1
Paired box protein Pax-8 = Paired box protein Pax-8 (Homo sapiens, UniProt Q06710); assay: inhibitors of PAX8-driven TPO luciferase reporter, dose response, RMG-I cells, cherry-pick (AID 687027); format: functional, cell-based;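 further: luciferase reporter driven by Pax8 target thyroperoxidase promoter measured by SteadyGlo luminescence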
[30] = NIH:OVCAR-3 ovarian cancer cell cytotoxicity, dose response, PAX8 inhibitor project, plate reader, dry powder samples (AID 743044); format: functional, cell-based
[31] = T. cruzi growth inhibition in host cells, dose response, cell-based, plate reader, dry powder, set 2 (AID 652275); format: functional

O=C(c1ccc(F)cc1)c1cn(Cc2ccc(F)cc2)c2cc3c(cc2c1=O)OCCO3
IC50 (cells [1]): > 138 µM (inactive) | IC50 (Major prion protein): 3.03 µM (active)

Cc1ccc(C(=O)Nc2ncccc2O)o1
IC50 (cells [2]): > 67.6 µM (inactive) | IC50 [3]: 24.7 µM (inactive)

CN1CCN(c2ccc(-c3cccc(NC(=O)COc4ccccc4)c3)nn2)CC1
IC50 (cells [2]): > 67.5 µM (inactive) | IC50 [3]: > 67.5 µM (inactive)

c1ccc(-c2csc(Nc3ccc4c(c3)OCCO4)n2)cc1
EC50 (cells [4]): > 67.5 µM (inactive) | EC50 [5]: > 67.5 µM (inactive)

COc1ccc2c(Cl)c(C(N)=O)sc2c1
EC50 [6]: > 79.4 µM (inactive) | IC50 [7]: 68.3 µM (not active) | IC50 (cells [1]): > 138 µM (inactive) | IC50 (Major prion protein): 2.46 µM (active) | EC50 [8]: > 79.4 µM (not active) | EC50 [9]: 16.7 µM (not active)

Cc1ccc2ccc(C3C(=O)c4ccccc4C3=O)nc2c1
EC50 (Estrogen receptor): 13.2 µM (not active) | EC50 [10]: 48.4 µM (active) | EC50 [11]: > 300 µM (not active) | EC50 (cells [4]): > 67.6 µM (inactive) | EC50 [5]: > 67.6 µM (inactive)

Cc1nc2c(-c3ccc(F)cc3)c(C)nn2c(C)c1CCC(=O)NC(C)CCc1ccco1 (stereo unspecified)
Ki (fMet-Leu-Phe receptor): > 66.7 µM (inactive) | CC50 [12]: > 50 µM (active)

COc1ccc(CCNC(=O)CN2CCCc3ccccc32)cc1OC
IC50 (Protein Tat): > 100 µM (active)

CC1CN(S(=O)(=O)c2ccc(C(=O)NCCCn3ccnc3)cc2)CC(C)O1 (stereo unspecified)
EC50 (BJ [13]): 5.83 µM (inconclusive) | EC50 [14]: 7.94 µM (active) | EC50 [15]: 11.1 µM (active) | EC50 [16]: 13.2 µM (active) | EC50 (BJ [17]): > 150 µM (not active) | EC50 (BJ [18]): 3.76 µM (inconclusive) | AC50 [19]: > 52 µM (inactive) | AC50 (INS1): 1.17 µM (active) | EC50 (BJ [20]): 0.39 µM (active)

COc1ccc(C2C(C(=O)c3ccco3)=C(O)C(=O)N2CCc2ccccc2)cc1OC (stereo unspecified)
Ki (fMet-Leu-Phe receptor): 36.9 µM (inactive)

C=C1c2cccc(O)c2C(=O)C2C(=O)[C@]3(O)C(=O)C(C(N)=O)C(=O)[C@@H](N(C)C)[C@@H]3[C@@H](O)[C@H]12 (stereo partly specified)
AC50 (Escherichia coli [21]): 31.7 µM (active) | AC50 [22]: 12.7 µM (active) | AC50 (Escherichia coli [23]): 2.19 µM (active)

CC(=O)Nc1cccc(-c2ccnc3c2CC(C(=O)NCc2cccc(Cl)c2)O3)c1 (stereo unspecified)
AC50 (cells [24]): 40.1 µM (active) | AC50 (cells [25]): > 52 µM (inactive) | AC50 [26]: > 52 µM (inactive)

Cn1c(=O)c2cc(NC(=O)NCc3ccccc3)ccc2n1C/C=C/c1ccccc1
AC50 [27]: 36.9 µM (active) | AC50 [28]: 18.2 µM (active)

C[C@H](CO)N1C[C@H](C)[C@H](CN(C)Cc2ccc(C(F)(F)F)cc2)OCCCC[C@H](C)Oc2ccc(NC(=O)Nc3ccc4c(c3)OCO4)cc2C1=O
AC50 [29]: 40.3 µM (active) | AC50 (Paired box protein Pax-8): 5.42 µM (active) | AC50 [30]: 28.6 µM (active)

COc1cccc(CN(C)C[C@H]2Oc3c(NC(=O)c4ccncc4)cccc3C(=O)N([C@@H](C)CO)C[C@@H]2C)c1
AC50 [31]: 0.0568 µM (active)

COC(=O)c1ccc2nc(-c3ccc(OC)c(OC)c3)c(Cc3ccccc3C(F)(F)F)n2c1
AC50 [22]: > 30 µM (inactive)

CCN(C)C[C@H]1Oc2c(NC(=O)c3ccncc3)cccc2C(=O)N(C(C)C)[C@@H]1C
AC50 [31]: 0.0842 µM (active)
